Assay results as given in patent US6221914A, “Sulfonamide bridging compounds that inhibit tryptase activity” (Array Biopharma Inc., priority 1998, dated 2001).

Columns and labels:
Type in all cases: biochemical
Human plasma thrombin = molecular target: T1, Human plasma thrombin (Homo sapiens, UniProt P00734); assay: Ki determination, human plasma thrombin (H-D-Phe-Pip-Arg-pNA); conditions: 50 mM Tris-HCl, pH 8.3, 100 mM NaCl, 1% BSA; read-out: Experimentally Determined Ki, Thrombin
T1 construct: from tissue; host or cells: human plasma
Experimental: (§1) Protease inhibition was assayed according to published procedures with minor modifications using various proteases and specific chromogenic peptide p-nitroanilide substrates. Assays were performed in Costar ultra-low cluster 96-well microtiter plate (Costar Corning Corp., Cambridge Mass.). Each protease was incubated with various concentrations of the test compound for 15 min. at 37° C. or as otherwise indicated, in specific assay buffer, and the residual activity was then measured by addition of the substrate. p-Nitroaniline produced by the proteolysis was determined by measuring the change in absorbance at 405 nm on a SpectraMAX 340 plate reader (Molecular devices, Sunnyvale, Calif.).
(§2) 1. The inhibition constant, Ki is calculated from individual data points using the equation for a tight-binding inhibitor (See Beith, "Proteinase Inhibitors-Proceedings of 2nd Int. Res. Conference", Fritz, et al. eds, New York, p.4463-4469 (1974)):
(§3) vi /vo [((Ki '+[I]+[E]o)^2 -4 [I]o
(§4) [E]o)^1/2 (Ki '+[I]o -[E]o)]/2[E]o
(§5) where Ki ' is apparent inhibition constant; vi and vo are the inhibited and uninhibited rates, respectively; [I]o and [E]o are the total concentrations of inhibitor and enzyme, respectively.
(§6) [note: [E]o is determined by active site titration of enzyme]
(§7) The Ki values are obtained by correcting Ki ' values for the effect of substrate concentration according to: [formula]
(§8) 2. Other inhibition data (Ki >>[E]o), the Ki is calculated from using the equations for a competitive inhibitor: [formula]
Human plasma thrombin activity was determined by using H-D-Phe-Pip-Arg-pNA in 50 mM Tris-HCl, pH 8.3, 100 mM NaCl, 1% BSA (See Lottenberg, et al. Meth. Enzymol. 80, 341-361 (1981)).
(§9) The inhibition constant (Ki) of the test compounds against each proteolytic enzyme was determined according to Zitnik et al., Biochem. Biophys. Res. Commun. 232, 687-697 (1997)).

Human plasma plasmin = molecular target: T2, Human plasma plasmin (Homo sapiens, UniProt P00747); assay: Ki determination, human plasma plasmin (Tosyl-Gly-Pro-Lys-pNA); conditions: 100 mM Tris-HCl, pH 7.4, 100 mM NaCl, 0.05% Triton X-100; read-out: Experimentally Determined Ki, Plasmin
T2 construct: from tissue; host or cells: human plasma
Experimental: as §1, §2, §3, §4, §5, §6, §7, §8
Human plasma plasmin activity was determined by using Tosyl-Gly-Pro-Lys-pNAin 100 mM Tris-HCl, pH 7.4, 100 mM NaCl, 0.05% Triton X-100 (See Lottenberg, et al., Meth. Enzymol. 80, 341-361 (1981)).
as §9

Human lung tryptase = assay: Ki determination, human lung tryptase (Tosyl-Gly-Pro-Arg-pNA substrate); conditions: 50 mM Tris-HCl pH 8.0, 37° C., 1 nM tryptase, 320 μM GPR-pNA; read-out: Experimentally Determined Ki, Tryptase
Experimental: as §1, §2, §3, §4, §5, §6, §7, §8
Human lung tryptase purchased from Cortex Biochem (San Leandro, Calif.) was purified further on a Superdex 200 gel-filtration column. The active-site concentration of the enzyme was determined by spectrophotometric titration with 4-nitrophenyl 4'-guanidinobenzoate according to Schwartz, et al., J. Immunol., 114, 2304-2311 (1990). Tryptase activity was measured according to the procedures of Schwartz, et al., J. Biol. Chem., 261, 7372-7379 (1986) (See also, Schwartz, L. B., Methods In Enzymology, 244, 88 (1994)) with minor modifications, using Tosyl-Gly-Pro-Arg-p-nitroanilide ("GPR-pNA", Sigma Chemical Co., St. Louis, Mo., T-1637) as a chromogenic substrate. The reaction was performed in 50 mM Tris-HCl, pH 8.0, containing 150 mM NaCl and 0.02% Triton X-100 at 37° C. in Costar ultra-low cluster 96-well microtiter plates (Costar Corning Corp., Cambridge, Mass.). The amount of pNA produced by tryptase was determined by measuring the change in absorbance at 405 nm on a SpectraMAX 340 plate reader (Molecular devices, Sunnyvale, Calif.). The Km for the substrate was determined by Lineweaver-Burk analysis from initial velocities of substrate hydrolysis. The inhibition assay was carried out in a total volume of 200 μL. Tryptase (30 μL- final concentration 1 nM) was incubated with various concentrations of sample compound (50 μL) to be tested in the above assay buffer for 5 min. The reaction was started by the addition of substrate GPR-pNA (40 μL-final concentration 320 μM), and the residual activity was measured after 15 min. of incubation. The inhibition constant, Ki, was determined by fitting the inhibition data to a two-site competitive binding equation using data analysis program GraphPad PRISM (GraphPad Software, Inc., San Diego, Calif.).
as §9

r-tissue kallikrein = r-tissue kallikrein (Homo sapiens, UniProt P06870); assay: Ki determination, r-tissue kallikrein (DL-Val-Leu-Arg-pNA); conditions: 50 mM Tris-HCl, pH 7.8, 200 mM NaCl, 0.05% BSA; read-out: Experimentally Determined Ki, Tissue Kallikrein
Experimental: as §1, §2, §3, §4, §5, §6, §7, §8
I. Human Plasma and r-Tissue Kallikrein
Human plasma and r-tissue kallikrein activity were determined in 50 mM Tris-HCl, pH 7.8, 200 mM NaCl, 0.05% BSA by using H-D-Prolyl-Phe-Arg-pNA and DL-Val-Leu-Arg-pNA, respectively (See Lottenberg, et al., Meth. Enzymol. 80, 341-361 (1981)).
as §9

Human plasma factor Xa = molecular target: T3, Human plasma factor Xa (Homo sapiens, UniProt P00742); assay: Ki determination, human plasma factor Xa (N-Benzoyl-Ile-Glu-Gly-Arg-pNA); conditions: 50 mM Tris-HCl, pH 7.8, 200 mM NaCl, 0.05% BSA; read-out: Experimentally Determined Ki, Factor Xa
T3 construct: from tissue; host or cells: human plasma
Experimental: as §1, §2, §3, §4, §5, §6, §7, §8
Human plasma factor Xa activity was determined by using N-Benzoyl-Ile-Glu-Gly-Arg-pNA in 50 mM Tris-HCl, pH 7.8, 200 mM NaCl, 0.05% BSA (See Lottenberg, et al. Meth. Enzymol. 80, 341-361 (1981)).
as §9

[1] = molecular target: T4, Bovine Pancreatic Chymotrypsin (Bos taurus, UniProt P00766); assay: Ki determination, bovine pancreatic chymotrypsin (N-Suc-Ala-Ala-Pro-Phe-pNA); conditions: 100 mM Tris-HCl, pH 7.8, 10 mM CaCl2; read-out: Experimentally Determined Ki, Chymotrypsin
T4 construct: from tissue; host or cells: bovine pancreas
Experimental: as §1, §2, §3, §4, §5, §6, §7, §8
Bovine Pancreatic Chymotrypsin activity was determined by using N-Suc-Ala-Ala-Pro-Phe-pNA in 100 mM Tris-HCl, pH 7.8, 10 mM CaCl2 (See Delmar, et al., J. Biochem. 85, 157-162 (1979)).
as §9

T3 sequence (P00742 235-488 limits assumed): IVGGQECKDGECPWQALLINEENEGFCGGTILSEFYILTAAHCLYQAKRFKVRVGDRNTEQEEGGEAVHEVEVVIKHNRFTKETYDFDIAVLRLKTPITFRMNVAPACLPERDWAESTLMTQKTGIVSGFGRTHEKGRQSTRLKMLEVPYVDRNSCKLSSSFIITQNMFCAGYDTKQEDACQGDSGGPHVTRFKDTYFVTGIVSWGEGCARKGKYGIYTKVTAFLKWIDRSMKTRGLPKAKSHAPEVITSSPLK
T3 sequence (P00742 41-179 partner limits assumed): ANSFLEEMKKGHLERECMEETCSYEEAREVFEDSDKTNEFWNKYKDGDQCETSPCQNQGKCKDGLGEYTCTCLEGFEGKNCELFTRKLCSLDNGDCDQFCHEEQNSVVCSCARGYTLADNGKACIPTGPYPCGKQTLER
Chain of r-tissue kallikrein (P06870 25-262): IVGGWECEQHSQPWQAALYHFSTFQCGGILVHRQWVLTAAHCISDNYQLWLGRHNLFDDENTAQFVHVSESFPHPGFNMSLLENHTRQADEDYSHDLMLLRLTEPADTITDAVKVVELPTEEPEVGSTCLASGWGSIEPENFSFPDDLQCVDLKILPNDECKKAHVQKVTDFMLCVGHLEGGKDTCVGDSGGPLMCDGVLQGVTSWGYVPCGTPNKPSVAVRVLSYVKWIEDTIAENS
T2 sequence (P00747 581-810 limits assumed): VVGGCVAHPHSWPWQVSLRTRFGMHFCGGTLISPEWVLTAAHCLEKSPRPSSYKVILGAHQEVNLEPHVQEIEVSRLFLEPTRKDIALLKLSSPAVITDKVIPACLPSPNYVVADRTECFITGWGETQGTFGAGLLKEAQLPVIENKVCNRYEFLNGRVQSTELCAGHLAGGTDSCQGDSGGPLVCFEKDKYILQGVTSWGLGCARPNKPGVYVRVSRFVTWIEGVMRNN
T2 sequence (P00747 97-580 partner limits assumed): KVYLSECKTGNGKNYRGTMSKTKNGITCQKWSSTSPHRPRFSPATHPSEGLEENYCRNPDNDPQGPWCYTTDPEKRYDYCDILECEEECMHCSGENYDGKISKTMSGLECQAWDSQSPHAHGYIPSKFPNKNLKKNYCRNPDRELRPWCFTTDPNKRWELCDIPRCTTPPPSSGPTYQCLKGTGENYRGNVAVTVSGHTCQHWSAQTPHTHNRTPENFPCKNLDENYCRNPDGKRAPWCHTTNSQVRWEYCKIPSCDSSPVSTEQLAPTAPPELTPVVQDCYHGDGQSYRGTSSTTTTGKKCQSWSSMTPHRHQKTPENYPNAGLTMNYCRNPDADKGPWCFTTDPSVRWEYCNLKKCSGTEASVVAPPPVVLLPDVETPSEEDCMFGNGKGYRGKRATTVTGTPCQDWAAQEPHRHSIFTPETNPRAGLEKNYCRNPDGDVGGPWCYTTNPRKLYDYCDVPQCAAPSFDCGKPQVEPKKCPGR

Structure (SMILES) | Ki (Human plasma thrombin) | Ki (Human plasma plasmin) | Ki (Human lung tryptase) | Ki (r-tissue kallikrein) | Ki (Human plasma factor Xa) | Ki [1]
N=C(N)c1ccc(C(=O)NCc2ccc(OCCCCOc3ccc(CNC(=O)c4ccc(C(=N)N)cc4)cc3)cc2)cc1 [Example 60, 1,4-Bis-{4-[(4-carbamimidoyl-benzenecarbonylamino)-methyl]-phenoxy}-butane] | > 100 µM | 12 µM | 0.0002 µM | > 100 µM | 17.7 µM | > 100 µM
N=C(N)c1cccc(C(=O)NCc2ccc(OCCCCOc3ccc(CNC(=O)c4cccc(C(=N)N)c4)cc3)cc2)c1 [Example 61, 1,4-Bis-{4-[(3-carbamimidoyl-benzenecarbonylamino)-methyl]-phenoxy}-butane] | > 100 µM | 6 µM | 0.01 µM | > 100 µM | 1 µM | > 100 µM
N=C(N)c1ccc(C(=O)NCc2ccc(OCCCOc3ccc(CNC(=O)c4ccc(C(=N)N)cc4)cc3)cc2)cc1 [Example 62, 1,3-Bis-{4-[(4-carbamimidoyl-benzoylamino)-methyl]-phenoxy}-propane] | > 100 µM | 11.6 µM | 0.0005 µM | > 100 µM | 35 µM | > 100 µM
N=C(N)c1ccc(C(=O)NCc2ccc(OCCOc3ccc(CNC(=O)c4ccc(C(=N)N)cc4)cc3)cc2)cc1 [Example 64, 1,2-Bis-{4-[(4-carbamimidoyl-benzoylamino)-methyl]-phenoxy}-ethane] | > 100 µM | 6.5 µM | 0.05 µM | > 100 µM | 35.3 µM | > 100 µM
N=C(N)c1cccc(C(=O)NCc2ccc(OCCOc3ccc(CNC(=O)c4cccc(C(=N)N)c4)cc3)cc2)c1 [Example 65, 1,2-Bis-{4-[(3-carbamimidoyl-benzoylamino)-methyl]-phenoxy}-ethane] | > 100 µM | 46 µM | 0.35 µM | > 100 µM | 2.6 µM | > 100 µM
N=C(N)c1ccc(C(=O)NCc2ccc(COCc3ccc(CNC(=O)c4ccc(C(=N)N)cc4)cc3)cc2)cc1 [Example 66, 1,3-Bis-{4-[(4-carbamimidoyl-benzenecarbonylamino)-methyl]-phenyl}-2-oxapropane] | > 100 µM | 10.1 µM | 0.38 µM | > 100 µM | 25.7 µM | > 100 µM
CN(Cc1ccc(OCCCOc2ccc(CN(C)S(=O)(=O)c3cccc(C(=N)N)c3)cc2)cc1)S(=O)(=O)c1cccc(C(=N)N)c1 [Example 68, 1,3-Bis-{4-[(3-carbamimidoyl-benzenesulfonyl-[N-methyl]-amino)-methyl]-phenoxy}-propane] | > 100 µM | 10 µM | 0.02 µM | > 100 µM | 20 µM | > 100 µM
N=C(N)c1ccc(C(=O)NCc2cccc(OCCCCCOc3cccc(CNC(=O)c4ccc(C(=N)N)cc4)c3)c2)cc1 [Example 76, 1,5-Bis-{3-[(4-carbamimidoyl-benzenecarbonylamino)-methyl]-phenoxy}-pentane] | 21 µM | > 100 µM | 0.005 µM | 5 µM | > 100 µM | > 100 µM
N=C(N)c1cccc(C(=O)NCc2cccc(OCCCCCOc3cccc(CNC(=O)c4cccc(C(=N)N)c4)c3)c2)c1 [Example 77, 1,5-Bis-{3-[(3-carbamimidoyl-benzenecarbonylamino)-methyl]-phenoxy}-pentane] | > 100 µM | 4.3 µM | 0.01 µM | 32 µM | 1.9 µM | > 100 µM
N=C(N)c1ccc(C(=O)NCc2ccc(OCCCOc3ccc(CNC(=O)c4cccc(C(=N)N)c4)cc3)cc2)cc1 [Example 85, 4-Carbamimidoyl-N-[4-(3-{4-[(3-carbamimidoyl-benzoylamino)-methyl]-phenoxy}-propoxy)-benzyl]-benzamide] | > 100 µM | 5.2 µM | 0.003 µM | > 100 µM | 2.2 µM | > 100 µM
